Laboratory results published in paper PMC9291687.
Values joined by “and” are separate entries in the source; they are usually repeats but may differ in a detail not shown here. Equal values may be shown once. “Also recorded” adds a separate entry of the source.

Experiments:
prostate cancer (PC-3) = test: MTT antiproliferative assay, PC-3; details: Homo sapiens
Experimental: (§1) Preliminary screening against the cancer cell lines was performed, using doxorubicin as a reference drug at doses of 100 μM.
(§2) In vitro cytotoxicity was carried out using MTT assay protocol[63] as described in Supplementary data.
(§3) proliferative activity was assessed quantitatively as follows;
(§4) Human cancer cell lines were dropped in 96-well plates at a density of 3-8 × 10^3 cells/well.
(§5) growth medium was exchanged with 0.1 ml of fresh medium containing graded concentrations of the test compounds to be or equal DMSO and incubated for two days. Then 10 μl MTT solution (0.5 mg/ml) was added to each well, and the cells were incubated for additional 4 h. The crystals of MTT-formazan were dissolved in 100 μl of DMSO; the absorbance of each well was measured at 490 nm using an automatic ELISA reader system (TECAN, CHE). The IC50 values were calculated using the nonlinear regression fitting models (Graph Pad, Prism Version 5). The data represented the mean of three independent experiments in triplicate and were expressed as means
(§6) The results were expressed as growth inhibitory concentration (IC50) values and

caspase-3 in PC-3 cells = test: Caspase-3 determination (ELISA); format: cell-based, human
colon cancer (HCT-116) = test: MTT antiproliferative assay, HCT-116
Experimental: as §1, §2, §3, §4, §5, §6

PC-3 cells [1] = test: Annexin V-FITC/PI apoptosis assay; format: cell-based, human; details: PC-3, 7.98 µM, 24 h
Experimental: The results were depicted in (Figure 6 and Supplementary data).
The effect of compound 8a on cell apoptosis was investigated as described in Supplementary data[76–78].
4.1.3. Annexin V-FITC apoptosis assay.
To detect the apoptosis induced by compound 8a, PC-3 cells were seeded and incubated overnight […]
the negative control. After that, the cells were collected and washed with PBS two successive times. The cells were exposed to centrifugation. Apoptosis detection kit (BD Biosciences, San Jose, CA) was used in this test. According to the manufacturer's protocol the cells were stained by Annexin V-FITC and propidium iodide (PI) in the binding buffer for 20min at room temperature in the dark. Using a flow cytometer, Annexin V-FITC and PI binding were analyzed. flowjo software was used to analyze the frequencies in all quadrants.
Cell cycle distribution (%)

lung cancer (A-549) = test: MTT antiproliferative assay, A-549; details: Homo sapiens
Experimental: as §1, §2, §3, §4, §5, §6

EGFR^T790M = EGFR^T790M (Homo sapiens, UniProt P00533, T790M); test: EGFRT790M kinase inhibitory assay (HTRF)
Experimental: (§7) In vitro EGFR inhibitory activity was assessed using Homogeneous time-resolved fluorescence (HTRF) assay[64] as described in Supplementary data.
(§8) The IC50 values were calculated using the nonlinear regression fitting models (Graph Pad, Prism Version 5).
(§9) EGFRWT and EGFRT790M kinase inhibitory assay
(§10) Homogeneous time resolved fluorescence (HTRF) assay was applied in this test.
(§11) EGFRWT, EGFRT790M (Sigma). firstly, the EGFRWT and/or EGFRT790M and their substrates were incubated with the tested compounds in enzymatic buffer for 5 min.
(§12) into the reaction mixture to allow starting the enzymatic reaction. The assay was conducted for 30 min at room temperature. The reaction was stopped by addition of detection reagents which contain
(§13) GraphPad Prism 5.0. Three independent experiments were performed for each concentration.

breast cancer (MCF-7) = test: MTT antiproliferative assay, MCF-7; details: Homo sapiens, MCF7, read-out: Growth inhibition (%) MCF-7
Experimental: as §1, §2, §3, §4, §5, §6

PC-3 cells [2] = test: Cell cycle analysis by flow cytometry (PI staining); format: cell-based, human
EGFR^WT = EGFR^WT (Homo sapiens, UniProt P00533); test: EGFRWT kinase inhibitory assay (HTRF)
Chain of EGFR^WT (P00533 25-1210): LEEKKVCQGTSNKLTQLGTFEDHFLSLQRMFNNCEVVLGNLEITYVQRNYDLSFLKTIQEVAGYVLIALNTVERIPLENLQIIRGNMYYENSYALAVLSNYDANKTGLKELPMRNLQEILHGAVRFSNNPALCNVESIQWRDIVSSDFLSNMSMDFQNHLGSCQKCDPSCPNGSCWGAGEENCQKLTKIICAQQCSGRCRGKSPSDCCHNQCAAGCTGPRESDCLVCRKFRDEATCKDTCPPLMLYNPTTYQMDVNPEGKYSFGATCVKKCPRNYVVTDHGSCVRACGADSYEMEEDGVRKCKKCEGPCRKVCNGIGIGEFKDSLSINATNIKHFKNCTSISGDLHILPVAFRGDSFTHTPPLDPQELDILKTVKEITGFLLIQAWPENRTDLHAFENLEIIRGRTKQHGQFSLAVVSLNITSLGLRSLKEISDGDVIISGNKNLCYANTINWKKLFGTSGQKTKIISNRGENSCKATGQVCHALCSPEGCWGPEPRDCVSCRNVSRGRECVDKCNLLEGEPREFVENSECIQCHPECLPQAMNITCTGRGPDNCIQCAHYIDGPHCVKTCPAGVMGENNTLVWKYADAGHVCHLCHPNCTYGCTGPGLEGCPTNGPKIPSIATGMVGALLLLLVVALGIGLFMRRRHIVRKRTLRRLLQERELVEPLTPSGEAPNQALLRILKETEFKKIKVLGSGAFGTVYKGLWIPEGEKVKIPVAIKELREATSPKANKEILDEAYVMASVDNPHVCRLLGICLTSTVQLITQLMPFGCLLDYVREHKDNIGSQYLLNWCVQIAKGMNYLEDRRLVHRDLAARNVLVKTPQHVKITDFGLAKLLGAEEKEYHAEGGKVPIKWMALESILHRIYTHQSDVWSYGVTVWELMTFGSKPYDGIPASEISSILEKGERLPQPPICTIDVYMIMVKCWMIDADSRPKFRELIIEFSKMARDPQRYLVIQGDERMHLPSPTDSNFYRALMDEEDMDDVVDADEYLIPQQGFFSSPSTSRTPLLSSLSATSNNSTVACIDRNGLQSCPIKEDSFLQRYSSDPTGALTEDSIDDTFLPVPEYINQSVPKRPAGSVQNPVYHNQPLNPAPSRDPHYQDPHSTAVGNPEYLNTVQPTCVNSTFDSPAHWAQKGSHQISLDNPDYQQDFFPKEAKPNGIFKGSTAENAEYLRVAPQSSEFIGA
Experimental: as §7, §8, §9, §10, §11, §12, §13

Chain of EGFR^T790M (P00533 25-1210 T790M): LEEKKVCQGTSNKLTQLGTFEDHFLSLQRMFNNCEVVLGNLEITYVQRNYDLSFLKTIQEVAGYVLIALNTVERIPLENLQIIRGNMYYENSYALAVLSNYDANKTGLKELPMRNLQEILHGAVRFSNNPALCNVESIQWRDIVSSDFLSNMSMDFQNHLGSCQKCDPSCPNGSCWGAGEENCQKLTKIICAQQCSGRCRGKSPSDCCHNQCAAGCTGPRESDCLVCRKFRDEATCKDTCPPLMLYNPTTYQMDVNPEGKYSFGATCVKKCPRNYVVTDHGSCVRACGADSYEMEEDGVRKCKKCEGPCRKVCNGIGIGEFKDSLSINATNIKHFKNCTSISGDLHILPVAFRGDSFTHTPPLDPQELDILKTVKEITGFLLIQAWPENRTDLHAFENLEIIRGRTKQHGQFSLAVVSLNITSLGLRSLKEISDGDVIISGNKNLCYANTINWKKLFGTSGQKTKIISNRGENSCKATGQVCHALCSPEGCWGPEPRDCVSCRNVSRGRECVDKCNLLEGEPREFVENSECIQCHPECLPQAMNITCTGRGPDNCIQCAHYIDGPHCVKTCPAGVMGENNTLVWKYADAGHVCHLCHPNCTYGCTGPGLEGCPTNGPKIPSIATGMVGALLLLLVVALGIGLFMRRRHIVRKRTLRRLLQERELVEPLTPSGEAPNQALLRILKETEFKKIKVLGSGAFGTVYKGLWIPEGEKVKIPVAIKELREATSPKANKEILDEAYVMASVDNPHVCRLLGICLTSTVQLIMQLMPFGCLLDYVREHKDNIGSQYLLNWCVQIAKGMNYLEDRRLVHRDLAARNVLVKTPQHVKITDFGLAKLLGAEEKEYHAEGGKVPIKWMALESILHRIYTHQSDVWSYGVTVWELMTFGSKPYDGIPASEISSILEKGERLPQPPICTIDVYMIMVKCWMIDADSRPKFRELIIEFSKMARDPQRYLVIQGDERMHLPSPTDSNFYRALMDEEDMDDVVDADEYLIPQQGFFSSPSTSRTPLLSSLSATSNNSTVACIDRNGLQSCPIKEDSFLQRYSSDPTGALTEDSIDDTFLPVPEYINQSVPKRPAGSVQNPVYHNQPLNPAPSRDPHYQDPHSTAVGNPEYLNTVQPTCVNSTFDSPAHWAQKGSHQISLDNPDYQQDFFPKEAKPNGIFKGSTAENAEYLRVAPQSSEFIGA

Compound: Cc1ccc(-c2cc(-c3ccc(Cl)cc3)nc3nc4[nH]c5ccccc5c(=O)n4c(=O)c23)cc1 [Compound 8a, 2–(4-Chlorophenyl)-4-(p-tolyl)-5H-pyrido[2',3':4,5]pyrimido [2,1-b] quinazoline-5,7(12H)-dione]
- inhibition at 100 µM (prostate cancer (PC-3); read-out: Growth inhibition (%) PC-3): 98%
- IC50 (prostate cancer (PC-3); read-out: IC50 PC-3): 7.98 ± 2.4 µM
- Increase in caspase-3 level vs control cells (caspase-3 in PC-3 cells; 24 h): 5.3 fold
- Caspase-3 level (caspase-3 in PC-3 cells; 24 h treatment, 8a at 3.04 µM, control 84.24, mean ± SEM): 452.3 pg/mL and 452.3 ± 10.5 pg/mL
- inhibition at 100 µM (colon cancer (HCT-116); Homo sapiens, HCT-116, read-out: Growth inhibition (%) HCT-116): 84%
- IC50 (colon cancer (HCT-116); Homo sapiens, HCT-116, read-out: IC50 HCT-116): 25.6 ± 1.3 µM
- Cytotoxic activity against HCT-116 (colon cancer (HCT-116); MTT): mild cytotoxic activity
- Increase in early apoptosis ratio vs control (PC-3 cells [1]): 32 fold
- Increase in late apoptosis ratio vs control (PC-3 cells [1]): 150 fold
- Late apoptosis (PC-3 cells [1]; control 0.15%): 22.49%
- Early apoptosis (PC-3 cells [1]; control 0.43%): 13.92%
- Necrosis (PC-3 cells [1]; control 1.20): 4.65%
- Total apoptosis (PC-3 cells [1]; control 1.78): 41.06%
- inhibition at 100 µM (lung cancer (A-549); A549, read-out: Growth inhibition (%) A549): 90%
- IC50 (lung cancer (A-549); A549, read-out: IC50 A-549, MTT, mean of at least three experiments): 16.2 ± 2.4 µM
- IC50 (EGFR^T790M): 123 ± 10 nM
- inhibition at 100 µM (breast cancer (MCF-7)): 32%
- Increase of cell population at %S vs control (PC-3 cells [2]; PC-3, 7.98 µM, 24 h): 1.3 folds
- Increase of cell population at pre-G1 vs control (PC-3 cells [2]; PC-3, 7.98 µM, 24 h): 22 folds
- Cell cycle distribution %Pre-G1 (PC-3 cells [2]; PC-3, 7.98 µM, 24 h, control 1.78%): 41.06%
- Cell cycle distribution %G2-M (PC-3 cells [2]; PC-3, 7.98 µM, 24 h, control 9.75%): 4.93%
- Cell cycle distribution %S (PC-3 cells [2]; PC-3, 7.98 µM, 24 h, control 41.03%): 53.69%
- Cell cycle distribution %G0-G1 (PC-3 cells [2]; PC-3, 7.98 µM, 24 h, control 49.22%): 41.38%
- Cell cycle arrest phase (PC-3 cells [2]; PC-3 cells): arrested the cell cycle at pre-G1 phase; also recorded: arrest the PC-3 cell line at pre-G1; also recorded: arrested the cell cycle at the pre-G1 phase
- IC50 (EGFR^WT): 99 ± 7 nM
